# Data from US20230338347A1, “New Use of Inhibitors of the Notch Signalling Pathway” (Cellestia Biotech AG, priority 2020, published 2023).
# Where a name gives a salt, the structure may show the parent alone.
# Columns and labels:
# NOTCH target genes [1] = assay: NOTCH target gene expression in hair follicles of Phase 1 patients (Nanostring); format: in vivo, human; details: Homo sapiens, hair follicle, read-out: Inhibition range, NOTCH target down regulation
# Text: Hair follicles were obtained at pre-defined time points to measure changes in NOTCH target genes expression by 6-(4-Tert-Butylphenoxy)Pyridin-3-Amine treatment. NOTCH target gene down-regulation in hair follicles has been reported to be a robust and indicative biomarker that correlates with both clinical efficacy and the incidence of DLTs (Tanis K Q, et al. Clin Pharmacol Ther 2016; 99(4):370-80; Cook N, et al. BJC 2018; 118(6):793-801).
# Between 5 to 10 hairs were plucked to extract the complete and undamaged hairbulb (full hair follicle), and processed as described in Camidge D R, et al. Br J Cancer 2005; 92:1837-41 and Bradley B J, et al. Mol EcolNotes 2005; 5:961-4. RNA concentration was measured by Qubit (RNAHighSensitivity), and RNA integrity was evaluated on a RNA 6000 Pico chip. RNA samples were tested for gene expression profiling on a Nanostring platform.
# (§1) Table 1: NOTCH target down regulation in hair follicles and blood cells from Phase 1 patients. Target gene down regulation (CCND3, cyclin-D3; HES1, Hairy and enhance of split-1; HES4, Hairy and enhance of split-4; HESS, Hairy and enhance of split-5; HEY1, hes related family bHLH transcription factor with YRPW motif1; HEY2; hes related family bHLH transcription factor with YRPW motif 2; HEYL, hes-related family bHLH transcription factor with YRPW motif-like; IL7R-α, Interleukin-7 receptor subunit alpha; NOTCH1; NOTCH2; NRARP (NOTCH Regulated Ankyrin Repeat Protein): […]
# NOTCH target genes [2] = assay: NOTCH target gene expression in whole blood of Phase 1 patients (Nanostring); format: in vivo; details: Homo sapiens, 600 mg dose group, CCND3, HEY1, IL7Rα, NOTCH1, NOTCH2, read-out: Inhibition range, NOTCH target down regulation
# Procedure: In addition to hair follicles, gene expression profiling to measure changes in NOTCH target genes was also performed in whole blood as an alternative surrogate tissue.
# Whole blood samples for gene expression analysis were collected in PAXgene Blood RNA Tubes and RNA extracted following their standard Blood RNA Kit for silica-membrane-based RNA isolation and purification (Beckton Dickinson). RNA samples were tested for gene expression profiling on a Nanostring platform.
# as §1
# [3] = Phase I/IIA dose escalation: visual symptoms (eye-related AE) per dose group; format: in vivo, human
# Procedure: The dosing will be 15, 30, 60, 120, 170, 250, 400, or 600 mg of the 6-(4-Tert-Butylphenoxy)Pyridin-3-Amine monohydrochloride salt or higher per day or alternatively 20, 40, 60, 120, 170, 250, 400, or 600 mg of the 6-(4-Tert-Butylphenoxy)Pyridin-3-Amine monohydrochloride salt or higher per day. Dosing of 15, 30, 60, 120, 170, 250, 400, or 600 mg of the 6-(4-Tert-Butylphenoxy)Pyridin-3-Amine monohydrochloride salt corresponds to dosing of 13, 26, 52, 104, 148, 217, 348, or 522 mg of 6-(4-Tert-Butylphenoxy)Pyridin-3-Amine (free base). Dosing of 20, 40, 60, 120, 170, 250, 400, or 600 mg of the 6-(4-Tert-Butylphenoxy)Pyridin-3-Amine monohydrochloride salt corresponds to dosing of 17, 35, 52, 104, 148, 217, 348, or 522 mg of 6-(4-Tert-Butylphenoxy)Pyridin-3-Amine (free base). For this study, 6-(4-Tert-Butylphenoxy)Pyridin-3-Amine monohydrochloride salt was formulated into a capsule having a drug load of 5, 10, 20, 50 and 100 mg, respectively intended to be administered orally. • Patients will meet the following criteria:
# In the dose escalation cohort, patients in dose group (DG) 4 receiving 120mg of 6-(4-Tert-Butylphenoxy)Pyridin-3-Amine monohydrochloride salt and patients in higher dose groups reported visual symptoms with increasing incidence. It is believed that the occurrence of visual symptoms is a pharmacodynamic effect of 6-(4-Tert-Butylphenoxy)Pyridin-3-Amine. This makes a dose of 120 mg and higher of the 6-(4-Tert-Butylphenoxy)Pyridin-3-Amine monohydrochloride salt the therapeutic dose of choice.
compound,measurement,setting,value
CC(C)(C)c1ccc(Oc2ccc(N)cn2)cc1 [6-(4-Tert-Butylphenoxy)Pyridin-3-Amine monohydrochloride],inhibition at 60 mg,"NOTCH target genes [1]; 60 mg dose group, HES4, HES5, NRARP",≤ 80%
same,inhibition at 120 mg,"NOTCH target genes [1]; 120 mg dose group, CCND3, HES4, HES5, HEYL, HEY2",≤ 95%
same,inhibition at 170 mg,"NOTCH target genes [1]; 170 mg dose group, HES1",≤ 75%
same,inhibition at 250 mg,"NOTCH target genes [1]; 250 mg dose group, CCND3, HES1, HEY2, NRARP",≤ 80%
same,inhibition at 600 mg,NOTCH target genes [2],≤ 50%
same,"Eye-related AE, % on total pts per DG",[3]; DG4 (120 mg),43%
same,dose at and above which visual symptoms were reported (increasing incidence),"[3]; DG4 and higher dose groups, once daily oral",≥ 120 mg
same,"Eye-related AE, % on total pts per DG",[3]; DG5 (170 mg),67%
same,"Eye-related AE, % on total pts per DG",[3]; DG6 (250 mg),75%
same,"Eye-related AE, % on total pts per DG",[3]; DG7 (400 mg),67%
same,"Eye-related AE, % on total pts per DG",[3]; DG8 (600 mg),67%
same,"Adaptative visual difficulty, #AEs",[3]; all dose groups,1
same,"Blurred vision, #AEs",[3]; all dose groups,6
same,"Eye disorder, #AEs",[3]; all dose groups,2
same,"Eye-related AE Total, #AEs",[3]; all dose groups,26
same,"Intermittent color vision deficiency/ Intermittent blurred vision, #AEs",[3]; all dose groups,2
same,"Photophobia, #AEs",[3]; all dose groups,2
same,"Photopsy, #AEs",[3]; all dose groups,3
same,"Transient defect in accommodation to dim light, #AEs",[3]; all dose groups,7
same,"Visual alteration, #AEs",[3]; all dose groups,2
same,"Visual disturbance in light exposure, #AEs",[3]; all dose groups,1
